US7390796B2, “Fatty acid modified forms of glucocorticoids” (Sepracor Inc., priority 2002, dated 2008)

What was measured:
WI-38 cells [1] = assay: IC50 for inhibition of IL-1β-stimulated PGE2 production in WI-38 cells; format: cell-based, human; conditions: PGE2 in supernatant, IL-1β stimulation, 24 hours, EIA
Protocol: Nominal 5 mM solutions of the budesonide fatty acid esters were made in DMSO by adding the following amounts of compound and DMSO: docosahexaenoic acid ester of budesonide 7.5 mg in 2 ml DMSO, docosapentaenoic acid ester of budesonide 32.9 mg in 9.1 ml DMSO and eicosapentaenoic acid ester of budesonide 20.3 mg in 5.8 ml DMSO. A 5 mM solution of budesonide was made by dissolving 4.5 mg of budesonide (Sigma Chemical Company product number B 7777) in 2.1 ml DMSO.
(§1) The WI-38 human lung fibroblast line was obtained from the ATCC (catalog number 75-CCL) and maintained in Basel Medium Eagle with Earle's salts (GibcoBRL product number 21010-046) supplemented with 2 mM glutamine and 10% fetal calf serum at 37° C. in a 7% CO2 (balance air), humidified atmosphere. One week before experiments were done, the WI-38 cells were seeded into 48-well tissue culture dishes and maintained in media containing 10% fetal calf serum. The cells were used when confluent. The day before the experiment the cells were fed fresh media containing 10% fetal calf serum (0.25 ml per well). One the day of the experiment the media was removed from the cells and 0.25 ml of media containing 5% fetal calf serum added.
To determine the IC50 values for the compounds, 1 to 1000 dilutions were made of the 5 mM stock solutions in DMSO to give 5 uM solutions. These solutions were serially diluted 1:2 in DMSO to give a series of 12 dilutions ranging from 5 uM to 2.4 nM. 0.0025 ml aliquots of the 12 dilutions were added to wells of the WI-38 cells to give final compound concentrations ranging from 50 nM to 0.024 nM. The cells were stimulated by addition of 0.001 ml of 0.025 ug/ml recombinant human Interleukin-1β (IL-1β-Calbiochem catalog number 407615) in 0.1% bovine serum albumin in phosphate buffered saline. The cells were incubated for 24 hours and the supernatants harvested. The level of PGE2 in the supernatants was assayed using a commercial Enzyme Immuno Assay (EIA) kit (Cayman Chemical catalog number 514010) after diluting 1:10 in EIA buffer according to the manufacturer's directions. The data from these experiments was fit to a 4 parameter logistic function using the IC50 routine in the Grafit 4 program (Erithecus software).

WI-38 cells [2] = assay: Wash-out (duration of action) experiment, PGE2 production in IL-1β-stimulated WI-38 cells; format: cell-based, human; conditions: 2 hours at 50 times the IC50, washed 5 times, IL-1β stimulation, 24 hours
Protocol: as §1
(§2) To test for duration of action, a wash-out experiment was performed as follows. Confluent cells in 48-well tissue culture dishes were treated with concentrations of the above compounds that were 50 times the IC50 values as determined above for 2 hours. The media was removed and the wells washed 5 times with 0.25 ml of media containing 5% fetal calf serum. 0.25 ml of media containing 5% fetal calf serum was then added. The WI-38 cells were stimulated by addition of 0.001 ml of 0.025 ug/ml recombinant human Interleukin-1β (Calbiochem catalog number 407615) in 0.1% bovine serum albumin in phosphate buffered saline. The RAW 264.7 cells were stimulated by addition of 0.001 ml of 0.5 ug/ml E. coli 0127:B8 lipopolysaccharide (LPS-Sigma catalog number L-4516) in 0.1% bovine serum albumin in phosphate buffered saline. The cells were incubated for 24 hours and the supernatants harvested. The level of PGE2 in the supernatants was assayed using a commercial Enzyme Immuno Assay (EIA) kit (Cayman Chemical catalog number 514010) after diluting 1:10 in EIA buffer according to the manufacturer's directions. Eight wells were used for each concentration and the results from these eight wells were averaged.

RAW 264.7 cells = assay: Wash-out (duration of action) experiment, PGE2 production in LPS-stimulated RAW 264.7 cells; format: cell-based, rat; conditions: 2 hours at 50 times the IC50, washed 5 times, E. coli LPS stimulation, 24 hours
Protocol: The […] cell line RAW 264.7 was obtained from the ATCC (catalog number 71-TIB) and maintained in Dulbecco's Modified Eagle Medium (GibcoBRL product number 11960-044) supplemented with 2 mM glutamine, 1 mM sodium pyruvate and 10% fetal calf serum at 37° C. in a 10% CO2 (balance air), humidified atmosphere. One week before experiments were done, the WI-38 cells were seeded into 48-well tissue culture dishes and maintained in media containing 10% fetal calf serum. The cells were used when confluent. The day before the experiment the cells were fed fresh media containing 10% fetal calf serum (0.25 ml per well). One the day of the experiment the media was removed from the cells and 0.25 ml of media containing 5% fetal calf serum added.
as §2

paw edema = assay: Rat paw edema model; format: in vivo
Protocol: Putative anti-inflammatory agents may also be tested in vivo in a rat paw edema model [Hirschelmann, R. and Bekemeier, H., Int J Tissue React 6, 471-475 (1984)], which persons of skill in the art accept as predictive of efficacy in treating asthma and rhinitis in humans. The phytanic acid ester of budesonide was tested in this model.

CCCC1O[C@@H]2C[C@H]3[C@@H]4CCC5=CC(=O)C=C[C@]5(C)[C@H]4[C@@H](O)C[C@]3(C)[C@]2(C(=O)CO)O1 (stereo partly shown) [Budesonide, budesonide, reference compound]
IC50 (WI-38 cells [1]; Homo sapiens, WI-38): 0.2 nM | PGE2 production (WI-38 cells [2]): 2688 pg/mL | PGE2 production (RAW 264.7 cells): 1339 pg/mL | percent reduction in paw volume (paw edema; dose 0.001 μg/paw, 1.5 hours): 0% | percent reduction in paw volume (paw edema; dose 0.001 μg/paw, 3 hours): 20% | percent reduction in paw volume (paw edema; dose 0.001 μg/paw, 4.5 hours): 15% | percent reduction in paw volume (paw edema; dose 0.001 μg/paw, 24 hours): 4% | percent reduction in paw volume (paw edema; dose 0.001 μg/paw, 48 hours): 3% | percent reduction in paw volume (paw edema; dose 0.001 μg/paw, 72 hours): 0% | percent reduction in paw volume (paw edema; dose 0.01 μg/paw, 1.5 hours): 0% | percent reduction in paw volume (paw edema; dose 0.01 μg/paw, 3 hours): 18% | percent reduction in paw volume (paw edema; dose 0.01 μg/paw, 4.5 hours): 0% | percent reduction in paw volume (paw edema; dose 0.01 μg/paw, 24 hours): 11% | percent reduction in paw volume (paw edema; dose 0.01 μg/paw, 48 hours): 0% | percent reduction in paw volume (paw edema; dose 0.01 μg/paw, 72 hours): 3% | percent reduction in paw volume (paw edema; dose 0.1 μg/paw, 1.5 hours): 14% | percent reduction in paw volume (paw edema; dose 0.1 μg/paw, 3 hours): 5% | percent reduction in paw volume (paw edema; dose 0.1 μg/paw, 4.5 hours): 0% | percent reduction in paw volume (paw edema; dose 0.1 μg/paw, 24 hours): 0% | percent reduction in paw volume (paw edema; dose 0.1 μg/paw, 48 hours): 0% | percent reduction in paw volume (paw edema; dose 0.1 μg/paw, 72 hours): 0% | percent reduction in paw volume (paw edema; dose 1 μg/paw, 1.5 hours): 36% | percent reduction in paw volume (paw edema; dose 1 μg/paw, 3 hours): 45% | percent reduction in paw volume (paw edema; dose 1 μg/paw, 4.5 hours): 32% | percent reduction in paw volume (paw edema; dose 1 μg/paw, 24 hours): 44% | percent reduction in paw volume (paw edema; dose 1 μg/paw, 48 hours): 17% | percent reduction in paw volume (paw edema; dose 1 μg/paw, 72 hours): 10% | percent reduction in paw volume (paw edema; dose 10 μg/paw, 1.5 hours): 11% | percent reduction in paw volume (paw edema; dose 10 μg/paw, 3 hours): 33% | percent reduction in paw volume (paw edema; dose 10 μg/paw, 4.5 hours): 34% | percent reduction in paw volume (paw edema; dose 10 μg/paw, 24 hours): 70% | percent reduction in paw volume (paw edema; dose 10 μg/paw, 48 hours): 38% | percent reduction in paw volume (paw edema; dose 10 μg/paw, 72 hours): 6%

CCC=CCC=CCC=CCC=CCC=CCC=CCCC(=O)OCC(=O)C12OC(CCC)OC1CC1C3CCC4=CC(=O)C=CC4(C)C3C(O)CC12C (stereo not shown) [Docosahexaenoic acid ester of budesonide, docosahexaenoic acid ester of budesonide]
IC50 (WI-38 cells [1]): 1.1 nM | PGE2 production (WI-38 cells [2]): 2075 pg/mL | PGE2 production (RAW 264.7 cells): 892 pg/mL

CCCC1OC2CC3C4CCC5=CC(=O)C=CC5(C)C4C(O)CC3(C)C2(C(=O)COC(=O)CC(C)CCCC(C)CCCC(C)CCCC(C)C)O1 (stereo not shown) [Phytanic acid ester of Budesonide, phytanic acid ester of budesonide]
percent reduction in paw volume (paw edema; dose 0.0017 μg/paw, 1.5 hours): 0% | percent reduction in paw volume (paw edema; dose 0.0017 μg/paw, 3 hours): 10% | percent reduction in paw volume (paw edema; dose 0.0017 μg/paw, 4.5 hours): 12% | percent reduction in paw volume (paw edema; dose 0.0017 μg/paw, 24 hours): 4% | percent reduction in paw volume (paw edema; dose 0.0017 μg/paw, 48 hours): 7% | percent reduction in paw volume (paw edema; dose 0.0017 μg/paw, 72 hours): 3% | percent reduction in paw volume (paw edema; dose 0.017 μg/paw, 1.5 hours): 0% | percent reduction in paw volume (paw edema; dose 0.017 μg/paw, 3 hours): 0% | percent reduction in paw volume (paw edema; dose 0.017 μg/paw, 4.5 hours): 0% | percent reduction in paw volume (paw edema; dose 0.017 μg/paw, 24 hours): 0% | percent reduction in paw volume (paw edema; dose 0.017 μg/paw, 48 hours): 0% | percent reduction in paw volume (paw edema; dose 0.017 μg/paw, 72 hours): 6% | percent reduction in paw volume (paw edema; dose 0.17 μg/paw, 1.5 hours): 0% | percent reduction in paw volume (paw edema; dose 0.17 μg/paw, 3 hours): 0% | percent reduction in paw volume (paw edema; dose 0.17 μg/paw, 4.5 hours): 0% | percent reduction in paw volume (paw edema; dose 0.17 μg/paw, 24 hours): 0% | percent reduction in paw volume (paw edema; dose 0.17 μg/paw, 48 hours): 0% | percent reduction in paw volume (paw edema; dose 0.17 μg/paw, 72 hours): 0% | percent reduction in paw volume (paw edema; dose 1.7 μg/paw, 1.5 hours): 18% | percent reduction in paw volume (paw edema; dose 1.7 μg/paw, 3 hours): 15% | percent reduction in paw volume (paw edema; dose 1.7 μg/paw, 4.5 hours): 2% | percent reduction in paw volume (paw edema; dose 1.7 μg/paw, 24 hours): 30% | percent reduction in paw volume (paw edema; dose 1.7 μg/paw, 48 hours): 17% | percent reduction in paw volume (paw edema; dose 1.7 μg/paw, 72 hours): 16% | percent reduction in paw volume (paw edema; dose 17 μg/paw, 1.5 hours): 11% | percent reduction in paw volume (paw edema; dose 17 μg/paw, 3 hours): 5% | percent reduction in paw volume (paw edema; dose 17 μg/paw, 4.5 hours): 2% | percent reduction in paw volume (paw edema; dose 17 μg/paw, 24 hours): 74% | percent reduction in paw volume (paw edema; dose 17 μg/paw, 48 hours): 79% | percent reduction in paw volume (paw edema; dose 17 μg/paw, 72 hours): 65% | duration of effect (paw edema; rat paw edema model, summary in words): greatly extended duration of effect

CCC=CCC=CCC=CCC=CCC=CCCCCCC(=O)OCC(=O)C12OC(CCC)OC1CC1C3CCC4=CC(=O)C=CC4(C)C3C(O)CC12C (stereo not shown) [docosapentaenoic acid ester of budesonide]
IC50 (WI-38 cells [1]): 9 nM | PGE2 production (WI-38 cells [2]): 200 pg/mL | PGE2 production (RAW 264.7 cells): 622 pg/mL

CCC=CCC=CCC=CCC=CCC=CCCCC(=O)OCC(=O)C12OC(CCC)OC1CC1C3CCC4=CC(=O)C=CC4(C)C3C(O)CC12C (stereo not shown) [eicosapentaenoic acid ester of budesonide]
IC50 (WI-38 cells [1]): 1.3 nM | PGE2 production (WI-38 cells [2]): 806 pg/mL | PGE2 production (RAW 264.7 cells): 576 pg/mL
